Tests used:
[1] = test system: common ragweed; assay: Test A postemergence; format: in vivo, Ambrosia elation; conditions: Postemergence
Source text: (§1) Seeds of plant species selected from barnyardgrass (Echinochloa crus-galli), kochia (Kochia scoparia), common ragweed (Ambrosia elation), Italian ryegrass (Lolium multiflorum), crabgrass, large (large crabgrass, Digitaria sanguinalis), foxtail, giant (giant foxtail, Setaria faberii), morningglory (Ipomoea spp.), pigweed (redroot pigweed, Amaranthus retroflexus), velvetleaf (Abutilon theophrasti), wheat (Triticum aestivum), and corn (Zea mays) were planted into a blend of loam soil and sand and treated preemergence with a directed soil spray using test chemicals formulated in a non-phytotoxic solvent mixture which included a surfactant.
(§2) At the same time, plants selected from these crop and weed species and also blackgrass (Alopecurus myosuroides), and galium (catchweed bedstraw, Galium aparine) were planted in pots containing the same blend of loam soil and sand and treated with postemergence applications of test chemicals formulated in the same manner. Plants ranged in height from 2 to 10 cm and were in the one- to two-leaf stage for the postemergence treatment. Treated plants and untreated controls were maintained in a greenhouse for approximately 10 days, after which time all treated plants were compared to untreated controls and visually evaluated for injury. Plant response ratings, summarized in Table A, are based on a 0 to 100 scale where 0 is no effect and 100 is complete control. A dash (-) response means no test result.

[2] = test system: sedge, umbrella; assay: Test B flood; format: in vivo, Cyperus difformis; conditions: 250 g ai/ha, visual rating on 0 to 100 scale (0 no effect, 100 complete control), 13 to 15 days
In short: (§3)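 Visual ratings on a 0–100 scale, where 0 means no effect and 100 means complete control, were assigned by comparison with controls 13 to 15 days after treatment. Compounds went into paddy water over 2-leaf plants flooded to 3 cm.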

[3] = test system: Italian ryegrass; assay: Test A postemergence; format: in vivo, Lolium multiflorum; conditions: Postemergence
In short: (§4)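 Visual injury rating, 0–100 (0 no effect, 100 complete control), vs untreated controls ~10 days after treatment in greenhouse. Pre: directed soil spray on seeded loam/sand. Post: 2–10 cm plants, 1–2 leaf stage. Formulation: non-phytotoxic solvent mix + surfactant.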

[4] = test system: kochia; assay: Test A preemergence; format: in vivo, Kochia scoparia; conditions: 125 g ai/ha, visual injury approx. 10 days after treatment
In short: as §4

[5] = test system: barnyardgrass; assay: Test B flood; format: in vivo, Echinochloa crus-galli; conditions: 250 g ai/ha, visual rating on 0 to 100 scale (0 no effect, 100 complete control), 13 to 15 days
In short: as §3

[6] = test system: kochia; assay: Test A postemergence; format: in vivo, Kochia scoparia; conditions: Postemergence
Source text: as §1, §2

[7] = test system: ducksalad; assay: Test B flood; format: in vivo, Heteranthera limosa; conditions: 250 g ai/ha, visual rating on 0 to 100 scale (0 no effect, 100 complete control), 13 to 15 days
In short: as §3

[8] = test system: rice; assay: Test B flood; format: in vivo, Oryza sativa; conditions: 250 g ai/ha, visual rating on 0 to 100 scale (0 no effect, 100 complete control), 13 to 15 days
In short: as §3

[9] = test system: barnyardgrass; assay: Test A postemergence; format: in vivo, Echinochloa crus-galli; conditions: Postemergence
In short: as §4

[10] = test system: pigweed; assay: Test A postemergence; format: in vivo, Amaranthus retroflexus; conditions: Postemergence
In short: as §4

[11] = test system: blackgrass; assay: Test A postemergence; format: in vivo, Alopecurus myosuroides; conditions: Postemergence
In short: as §4

[12] = test system: pigweed; assay: Test A preemergence; format: in vivo, Amaranthus retroflexus; conditions: preemergence, 125 g ai/ha, visual injury approx. 10 days after treatment
In short: as §4

[13] = test system: galium; assay: Test A postemergence; format: in vivo, Galium aparine; conditions: Postemergence
In short: as §4

[14] = test system: Italian ryegrass; assay: Test A preemergence; format: in vivo, Lolium multiflorum; conditions: for Italian Ryegrass plant response rating (0 to 100 scale): 125 g ai/ha, visual injury approx. 10 days after treatment; for Italian Ryegrass plant response rating: 500 g ai/ha, visual injury after approx. 10 days, 0 to 100 scale (0 no effect, 100 complete control)
In short: as §4

[15] = test system: corn; assay: Test A postemergence; format: in vivo, Zea mays; conditions: Postemergence
In short: as §4

[16] = test system: foxtail, giant; assay: Test A postemergence; format: in vivo, Setaria faberii; conditions: Postemergence
In short: as §4

[17] = test system: foxtail, giant; assay: Test A preemergence; format: in vivo, Setaria faberii; conditions: preemergence; for Foxtail, Giant plant response rating (0 to 100 scale): 125 g ai/ha, visual injury approx. 10 days after treatment; for Foxtail, Giant plant response rating: 500 g ai/ha, visual injury after approx. 10 days, 0 to 100 scale (0 no effect, 100 complete control)
In short: as §4

[18] = test system: wheat; assay: Test A postemergence; format: in vivo, Triticum aestivum; conditions: Postemergence
In short: as §4

[19] = test system: common ragweed; assay: Test A preemergence; format: in vivo, Ambrosia elation; conditions: for Common Ragweed plant response rating (0 to 100 scale): 125 g ai/ha, visual injury approx. 10 days after treatment; for Common Ragweed plant response rating: 500 g ai/ha, visual injury after approx. 10 days, 0 to 100 scale (0 no effect, 100 complete control)
Source text: as §1, §2

[20] = test system: barnyardgrass; assay: Test A preemergence; format: in vivo, Echinochloa crus-galli; conditions: preemergence; for Barnyardgrass plant response rating (0 to 100 scale, 0 is no effect, 100 is complete control): 125 g ai/ha, visual injury approx. 10 days after treatment; for Barnyardgrass plant response rating: 500 g ai/ha, visual injury after approx. 10 days, 0 to 100 scale (0 no effect, 100 complete control)
In short: as §4

[21] = 125 g ai/ha, 0 to 100 scale, 0 no effect, 100 complete control
[22] = 500 g ai/ha, 0 to 100 scale (0 no effect, 100 complete control)

Structure (SMILES) | Common Ragweed plant response rating [1, 21] | Common Ragweed plant response rating [1, 22] | Plant response rating, Sedge, Umbrella [2] | Italian Ryegrass plant response rating [3, 21] | Italian Ryegrass plant response rating [3, 22] | Kochia plant response rating (0 to 100 scale) [4] | Plant response rating, Barnyardgrass [5] | Kochia plant response rating [6, 21] | Kochia plant response rating [6, 22] | Plant response rating, Ducksalad [7] | Plant response rating, Rice [8] | Barnyardgrass plant response rating [9, 21] | Barnyardgrass plant response rating [9, 22] | Pigweed plant response rating [10, 21] | Pigweed plant response rating [10, 22] | Blackgrass plant response rating [11, 21] | Blackgrass plant response rating [11, 22] | Pigweed plant response rating (0 to 100 scale) [12] | Galium plant response rating [13, 21] | Galium plant response rating [13, 22] | also measured
CCc1cc(C(=O)NC2CC2)nn1Cc1cc(OC(F)F)nn1C [Compound 211] | 0 | 20 | 0 | 0 | 30 | 50 | 0 | 80 | 90 | 0 | 0 | 0 | 50 | 70 | 100 | 0 | 50 | 50 | 20 | 70 | Italian Ryegrass plant response rating (0 to 100 scale) [14]: 0; Italian Ryegrass plant response rating [14]: 20; Corn plant response rating [15, 21]: 30; Corn plant response rating [15, 22]: 40; Foxtail, Giant plant response rating [16, 21]: 0; Foxtail, Giant plant response rating [16, 22]: 60; Foxtail, Giant plant response rating (0 to 100 scale) [17]: 0; Foxtail, Giant plant response rating [17]: 80; Wheat plant response rating [18, 21]: 0; Wheat plant response rating [18, 22]: 20; Common Ragweed plant response rating (0 to 100 scale) [19]: 0; Common Ragweed plant response rating [19]: 40; Barnyardgrass plant response rating (0 to 100 scale, 0 is no effect, 100 is complete control) [20]: 0; Barnyardgrass plant response rating [20]: 70
CCc1cc(C(=O)NC2CC2)nn1Cc1cc(C(F)(F)F)nn1C(C)C [Compound 212] | 0 | 10 | 0 | 0 | 10 | 0 | 0 | 10 | 70 | 0 | 0 | 0 | 10 | 40 | 80 | 0 | 10 | 20 | 20 | 40 | Italian Ryegrass plant response rating (0 to 100 scale) [14]: 0; Italian Ryegrass plant response rating [14]: 0; Corn plant response rating [15, 21]: 0; Corn plant response rating [15, 22]: 10; Foxtail, Giant plant response rating [16, 21]: 0; Foxtail, Giant plant response rating [16, 22]: 10; Foxtail, Giant plant response rating (0 to 100 scale) [17]: 0; Foxtail, Giant plant response rating [17]: 0; Wheat plant response rating [18, 21]: 0; Wheat plant response rating [18, 22]: 10; Common Ragweed plant response rating (0 to 100 scale) [19]: 0; Common Ragweed plant response rating [19]: 0; Barnyardgrass plant response rating (0 to 100 scale, 0 is no effect, 100 is complete control) [20]: 0; Barnyardgrass plant response rating [20]: 0
CCc1cc(C(=O)NCC(F)(F)F)nn1Cc1cc(C(F)(F)F)nn1C(C)C [Compound 213] | 0 | 0 | 0 | 0 | 0 | 0 | 0 | 0 | 0 | 0 | 0 | 0 | 0 | 0 | 0 | 0 | 0 | 0 | 0 | 0 | Italian Ryegrass plant response rating (0 to 100 scale) [14]: 0; Italian Ryegrass plant response rating [14]: 0; Corn plant response rating [15, 21]: 0; Corn plant response rating [15, 22]: 0; Foxtail, Giant plant response rating [16, 21]: 0; Foxtail, Giant plant response rating [16, 22]: 0; Foxtail, Giant plant response rating (0 to 100 scale) [17]: 0; Foxtail, Giant plant response rating [17]: 0; Wheat plant response rating [18, 21]: 0; Wheat plant response rating [18, 22]: 0; Common Ragweed plant response rating (0 to 100 scale) [19]: 0; Common Ragweed plant response rating [19]: 0; Barnyardgrass plant response rating (0 to 100 scale, 0 is no effect, 100 is complete control) [20]: 0; Barnyardgrass plant response rating [20]: 0

— patent publication US20150105252A1, “SUBSTITUTED PYRAZOLES AS HERBICIDES” (E I DU PONT DE NEMOURS AND COMPANY, priority 2013, published 2015)
